Test results taken from patent US20080207641A1 (Synta Pharmaceuticals Corp., priority 2006, published 2008).
In brackets after ≈: the same amount, converted by molar mass. Read-outs that look alike come from different tables or passages of the source.

Assays:
IL-2 production = test: Inhibition of IL-2 production in PHA-activated Jurkat cells (ELISA); type: cell-based; settings: Homo sapiens, 20 h, PHA 2.5 μg/mL, 20 hours at 37° C., IL-2 ELISA
Protocol: Jurkat cells were placed in a 96 well plate (0.5 million cells per well in 1% FBS medium) then a test compound of this invention was added at different concentrations. After 10 minutes, the cells were activated with PHA (final concentration 2.5 μg/mL) and incubated for 20 hours at 37° C. under CO2. The final volume was 200 μL. Following incubation, the cells were centrifuged and the supernatants collected and stored at −70° C. prior to assaying for IL-2 production. A commercial ELISA kit (IL-2 Eli-pair, Diaclone Research, Besancon, France) was used to detect production of IL-2, from which dose response curves were obtained. The IC50 value was calculated as the concentration at which 50% of maximum IL-2 production after stimulation was inhibited versus a non-stimulation control.

[1] = Solubility in simulated gastric fluids; type: physicochemical
From the text: Solubility in Simulated Gastric Fluids

CC1=C(c2ccc(NC(=O)c3c(F)cccc3C(F)(F)F)cc2)CN(c2nccs2)CC1 [Compound 8, 2-fluoro-N-(4-(4-methyl-1-(thiazol-2-yl)-1,2,5,6-tetrahydropyridin-3-yl)phenyl)-6-(trifluoromethyl)benzamide]
IC50 (IL-2 production): 75 to 150 nM

CC1=C(c2ccc(NC(=O)c3ccc(F)cc3F)cc2)CN(c2nccs2)CC1 [Compound 16, 2,4-difluoro-N-(4-(4-methyl-1-(thiazol-2-yl)-1,2,5,6-tetrahydropyridin-3-yl)phenyl)benzamide]
IC50 (IL-2 production): ≤ 35 nM
solubility [1]: 150 µM (≈ 61.7 µg/mL)

CC(C)=CC(=O)Nc1ccc(C2=C(C)CCN(c3nnn(C)n3)C2)cn1 [Compound 28, 3-methyl-N-(5-(4-methyl-1-(2-methyl-2H-tetrazol-5-yl)-1,2,5,6-tetrahydropyridin-3-yl)pyridin-2-yl)but-2-enamide]
solubility ([1]; simulated gastric fluid): 50 µM (≈ 17.7 µg/mL)

O=C(Nc1ccc(C2=C(Cl)CCN(c3nccs3)C2)cn1)c1c(F)cccc1F [Compound 26, N-(5-(4-chloro-1-(thiazol-2-yl)-1,2,5,6-tetrahydropyridin-3-yl)pyridin-2-yl)-2,6-difluorobenzamide]
IC50 (IL-2 production): ≤ 35 nM
solubility ([1]; simulated gastric fluid): 100 µM (≈ 43.3 µg/mL)

CC1=C(c2ccc(NC(=O)c3c(F)cccc3F)nc2)CN(c2nnn(C)n2)CC1 [Compound 6, 2,6-difluoro-N-(5-(4-methyl-1-(2-methyl-2H-tetrazol-5-yl)-1,2,5,6-tetrahydropyridin-3-yl)pyridin-2-yl)benzamide]
IC50 (IL-2 production): ≤ 35 nM
solubility ([1]; simulated gastric fluid): 50 µM (≈ 20.6 µg/mL)

CC1=C(c2ccc(NC(=O)c3c(F)cccc3Cl)nc2)CN(c2nnn(C)n2)CC1 [Compound 23, 2-chloro-6-fluoro-N-(5-(4-methyl-1-(2-methyl-2H-tetrazol-5-yl)-1,2,5,6-tetrahydropyridin-3-yl)pyridin-2-yl)benzamide]
IC50 (IL-2 production): > 1000 nM
solubility ([1]; simulated gastric fluid): 25 µM (≈ 10.7 µg/mL)

CC1=C(c2cnc(NC(=O)c3c(F)cccc3F)cn2)CN(c2ncco2)CC1 [Compound 30, 2,6-difluoro-N-(5-(4-methyl-1-(oxazol-2-yl)-1,2,5,6-tetrahydropyridin-3-yl)pyrazin-2-yl)benzamide]
IC50 (IL-2 production): 35 to 75 nM
solubility [1]: 150 µM (≈ 59.6 µg/mL)

CC1=C(c2cnc(NC(=O)c3ccccc3F)cn2)CN(c2nccs2)CC1 [Compound 31, 2-fluoro-N-(5-(4-methyl-1-(thiazol-2-yl)-1,2,5,6-tetrahydropyridin-3-yl)pyrazin-2-yl)benzamide]
IC50 (IL-2 production): 35 to 75 nM
solubility ([1]; simulated gastric fluid): 25 µM (≈ 9.89 µg/mL)

CC1=C(c2cnc(NC(=O)c3c(F)cccc3Cl)cn2)CN(c2nnn(C)n2)CC1 [Compound 35, 2-chloro-6-fluoro-N-(5-(4-methyl-1-(2-methyl-2H-tetrazol-5-yl)-1,2,5,6-tetrahydropyridin-3-yl)pyrazin-2-yl)benzamide]
solubility ([1]; simulated gastric fluid): 25 µM (≈ 10.7 µg/mL)

CC1=C(c2ccc(NC(=O)c3c(F)cncc3F)cc2)CN(c2nccs2)CC1 [Compound 32, 3,5-difluoro-N-(4-(4-methyl-1-(thiazol-2-yl)-1,2,5,6-tetrahydropyridin-3-yl)phenyl)isonicotinamide]
IC50 (IL-2 production): ≤ 35 nM
solubility [1]: 150 µM (≈ 61.9 µg/mL)

CCC(Cl)C(=O)Nc1ccc(C2=C(C)CCN(c3nccs3)C2)cc1 (centres unmarked) [Compound 15, 2-chloro-N-(4-(4-methyl-1-(thiazol-2-yl)-1,2,5,6-tetrahydropyridin-3-yl)phenyl)butanamide]
IC50 (IL-2 production): ≤ 35 nM
solubility [1]: 150 µM (≈ 56.4 µg/mL)

Cn1nnc(N2CCC(Cl)=C(c3ccc(NC(=O)c4c(F)cccc4F)nc3)C2)n1 [Compound 25, N-(5-(4-chloro-1-(2-methyl-2H-tetrazol-5-yl)-1,2,5,6-tetrahydropyridin-3-yl)pyridin-2-yl)-2,6-difluorobenzamide]
IC50 (IL-2 production): ≤ 35 nM
solubility ([1]; simulated gastric fluid): 50 µM (≈ 21.6 µg/mL)

CC1=C(c2ccc(NC(=O)c3c(Cl)cccc3Cl)cc2)CN(c2nccs2)CC1 [Compound 10, 2,6-dichloro-N-(4-(4-methyl-1-(thiazol-2-yl)-1,2,5,6-tetrahydropyridin-3-yl)phenyl)benzamide]
IC50 (IL-2 production): 75 to 150 nM
solubility ([1]; simulated gastric fluid): 50 µM (≈ 22.2 µg/mL)

CC1=C(c2ccc(NCc3c(F)cccc3F)cc2)CN(c2nccs2)CC1 [Compound 5, N-(2,6-difluorobenzyl)-4-(4-methyl-1-(thiazol-2-yl)-1,2,5,6-tetrahydropyridin-3-yl)aniline]
IC50 (IL-2 production): ≤ 35 nM
solubility ([1]; simulated gastric fluid): 50 µM (≈ 19.9 µg/mL)

CC1=C(c2ccc(NC(=O)c3c(F)cccc3F)nc2)CN(c2nccn2C)CC1 [Compound 22, 2,6-difluoro-N-(5-(4-methyl-1-(1-methyl-1H-imidazol-2-yl)-1,2,5,6-tetrahydropyridin-3-yl)pyridin-2-yl)benzamide]
IC50 (IL-2 production): > 1000 nM

Cc1cncnc1C(=O)Nc1ccc(C2=C(C=O)CCN(c3nccs3)C2)cc1 [Compound 1, N-(4-(4-formyl-1-(thiazol-2-yl)-1,2,5,6-tetrahydropyridin-3-yl)phenyl)-5-methylpyrimidine-4-carboxamide]
IC50 (IL-2 production): 75 to 150 nM

CC1=C(c2ccc(NC(=O)c3ccccc3F)nc2)CN(c2nnn(C)n2)CC1 [Compound 29, 2-fluoro-N-(5-(4-methyl-1-(2-methyl-2H-tetrazol-5-yl)-1,2,5,6-tetrahydropyridin-3-yl)pyridin-2-yl)benzamide]
IC50 (IL-2 production): 35 to 75 nM
solubility ([1]; simulated gastric fluid): 50 µM (≈ 19.7 µg/mL)

CC1=C(c2cnc(NC(=O)c3ccccc3F)cn2)CN(c2nnn(C)n2)CC1 [Compound 33, 2-fluoro-N-(5-(4-methyl-1-(2-methyl-2H-tetrazol-5-yl)-1,2,5,6-tetrahydropyridin-3-yl)pyrazin-2-yl)benzamide]
IC50 (IL-2 production): 75 to 150 nM
solubility [1]: 150 µM (≈ 59.2 µg/mL)

CC1=C(c2ccc(NC(=O)c3c(F)cccc3F)cn2)CN(c2nccs2)CC1 [Compound 11, 2,6-difluoro-N-(6-(4-methyl-1-(thiazol-2-yl)-1,2,5,6-tetrahydropyridin-3-yl)pyridin-3-yl)benzamide]
IC50 (IL-2 production): 75 to 150 nM
solubility ([1]; simulated gastric fluid): 100 µM (≈ 41.2 µg/mL)

CC1=C(c2cnc(NC(=O)c3c(F)cccc3F)cn2)CN(c2nnnn2C)CC1 [Compound 3, 2,6-difluoro-N-(5-(4-methyl-1-(1-methyl-1H-tetrazol-5-yl)-1,2,5,6-tetrahydropyridin-3-yl)pyrazin-2-yl)benzamide]
IC50 (IL-2 production): > 1000 nM

CC1=C(c2cnc(NC(=O)c3ccc(F)cc3F)cn2)CN(c2nnn(C)n2)CC1 [Compound 24, 2,4-difluoro-N-(5-(4-methyl-1-(2-methyl-2H-tetrazol-5-yl)-1,2,5,6-tetrahydropyridin-3-yl)pyrazin-2-yl)benzamide]
IC50 (IL-2 production): 75 to 150 nM
solubility ([1]; simulated gastric fluid): 50 µM (≈ 20.6 µg/mL)

CC1=C(c2ccc(NC(=O)c3ccc(F)cc3F)cc2)CN(c2nccs2)CC1.Cl [Compound 19, 2,4-difluoro-N-(4-(4-methyl-1-(thiazol-2-yl)-1,2,5,6-tetrahydropyridin-3-yl)phenyl)benzamide hydrochloride]
solubility [1]: 150 µM

CC1=C(c2ccc(NC(=O)c3ccccc3F)cc2)CN(c2nccs2)CC1 [Compound 12, 2-fluoro-N-(4-(4-methyl-1-(thiazol-2-yl)-1,2,5,6-tetrahydropyridin-3-yl)phenyl)benzamide]
IC50 (IL-2 production): ≤ 35 nM
solubility ([1]; simulated gastric fluid): 50 µM (≈ 19.7 µg/mL)

CC1=C(c2ccc(NC(=O)C3c4ccccc4-c4ccccc43)cc2)CN(c2nccs2)CC1 [Compound 17, N-(4-(4-methyl-1-(thiazol-2-yl)-1,2,5,6-tetrahydropyridin-3-yl)phenyl)-9H-fluorene-9-carboxamide]
IC50 (IL-2 production): 150 to 1000 nM

CC1=C(c2cnc(NC(=O)c3c(F)cccc3F)cn2)CN(c2nnn(C)n2)CC1 [Compound 2, 2,6-difluoro-N-(5-(4-methyl-1-(2-methyl-2H-tetrazol-5-yl)-1,2,5,6-tetrahydropyridin-3-yl)pyrazin-2-yl)benzamide]
IC50 (IL-2 production): 35 to 75 nM
solubility ([1]; simulated gastric fluid): 50 µM (≈ 20.6 µg/mL)

O=C(Nc1ccc(C2=C(Cl)CCN(c3nccs3)C2)cn1)c1ccc(F)cc1F [Compound 27]
IC50 (IL-2 production): 75 to 150 nM
solubility ([1]; simulated gastric fluid): 50 µM (≈ 21.6 µg/mL)

CC1=C(c2ccc(NCc3c(F)cccc3F)nc2)CN(c2nccs2)CC1.Cl.Cl [Compound 7, N-(2,6-difluorobenzyl)-5-(4-methyl-1-(thiazol-2-yl)-1,2,5,6-tetrahydropyridin-3-yl)pyridin-2-amine dihydrochloride]
IC50 (IL-2 production): 35 to 75 nM
solubility ([1]; simulated gastric fluid): 100 µM

O=C(Nc1ccc(-c2cc(-c3nccs3)ccc2Cl)cc1)c1c(O)cccc1F [Compound 18, N-(2′-chloro-5′-(thiazol-2-yl)biphenyl-4-yl)-2-fluoro-6-hydroxybenzamide]
IC50 (IL-2 production): 75 to 150 nM

CC1=C(c2ccc(NC(=O)c3ccccc3C(F)(F)F)cc2)CN(c2nccs2)CC1 [Compound 9, N-(4-(4-methyl-1-(thiazol-2-yl)-1,2,5,6-tetrahydropyridin-3-yl)phenyl)-2-(trifluoromethyl)benzamide]
IC50 (IL-2 production): 35 to 75 nM

CC1=C(c2cnc(NC(=O)c3c(F)cncc3F)cn2)CN(c2nccs2)CC1.Cl [Compound 34, 3,5-difluoro-N-(5-(4-methyl-1-(thiazol-2-yl)-1,2,5,6-tetrahydropyridin-3-yl)pyrazin-2-yl)isonicotinamide hydrochloride]
solubility ([1]; simulated gastric fluid): 25 µM

CC1=C(c2ccc(NC(=O)c3ccc(F)cc3F)nc2)CN(c2nnn(C)n2)CC1 [Compound 21, 2,4-difluoro-N-(5-(4-methyl-1-(2-methyl-2H-tetrazol-5-yl)-1,2,5,6-tetrahydropyridin-3-yl)pyridin-2-yl)benzamide]
solubility [1]: 150 µM (≈ 61.7 µg/mL)

CC1=C(c2ccc(NC(=O)c3c(O)cccc3F)cc2)CN(c2nccs2)CC1 [Compound 13, 2-fluoro-6-hydroxy-N-(4-(4-methyl-1-(thiazol-2-yl)-1,2,5,6-tetrahydropyridin-3-yl)phenyl)benzamide]
IC50 (IL-2 production): 150 to 1000 nM
solubility ([1]; simulated gastric fluid): 50 µM (≈ 20.5 µg/mL)

CSc1ncccc1C(=O)Nc1ccc(C2=C(C)CCN(c3nccs3)C2)cc1 [Compound 14, N-(4-(4-methyl-1-(thiazol-2-yl)-1,2,5,6-tetrahydropyridin-3-yl)phenyl)-2-(methylthio)nicotinamide]
IC50 (IL-2 production): 150 to 1000 nM
